Reference: patent US20240123078A1, “COMPOUNDS AND METHODS FOR MODULATING IMMUNE-RELATED PROTEINS” (Vividion Therapeutics, Inc., priority 2019, published 2024)

Legend:
Assay in all cases: Cysteine reactivity ABPP
Type in all cases: binding
Settings in all cases: 100
[1] = molecular target: T1, PFKFB3 6-phosphofructo-2-kinase/fructose-2,6-bisphosphatase 3 C440 (Q16875) (Homo sapiens, UniProt Q16875)
T1 construct: endogenous in cells; host or cells: primary human T cells

[2] = molecular target: T2, UBASH3A Ubiquitin-associated and SH3 domain-containing protein A C435 (P57075) (Homo sapiens, UniProt P57075)
T2 construct: endogenous in cells; host or cells: primary human T cells
T2 sequence (P57075 1-661): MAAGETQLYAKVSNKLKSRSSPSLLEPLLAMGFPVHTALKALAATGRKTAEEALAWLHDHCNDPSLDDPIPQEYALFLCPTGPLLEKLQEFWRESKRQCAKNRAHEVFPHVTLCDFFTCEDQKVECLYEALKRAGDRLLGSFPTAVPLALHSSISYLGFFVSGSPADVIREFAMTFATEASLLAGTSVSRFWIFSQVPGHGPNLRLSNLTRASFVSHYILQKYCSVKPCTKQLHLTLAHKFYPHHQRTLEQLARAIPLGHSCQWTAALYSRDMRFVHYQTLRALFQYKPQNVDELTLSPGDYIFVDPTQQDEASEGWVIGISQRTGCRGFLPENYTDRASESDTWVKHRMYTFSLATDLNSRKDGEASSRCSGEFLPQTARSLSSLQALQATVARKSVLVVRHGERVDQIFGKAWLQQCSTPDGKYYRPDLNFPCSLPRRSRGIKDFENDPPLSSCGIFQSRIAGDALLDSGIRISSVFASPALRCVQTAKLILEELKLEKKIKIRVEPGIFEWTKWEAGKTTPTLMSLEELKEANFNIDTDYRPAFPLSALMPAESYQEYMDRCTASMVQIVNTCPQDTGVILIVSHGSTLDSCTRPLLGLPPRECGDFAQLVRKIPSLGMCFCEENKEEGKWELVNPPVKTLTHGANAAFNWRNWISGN

[3] = molecular target: T3, KAT8 Histone acetyltransferase KAT8 C416 (Q9H7Z6) (Homo sapiens, UniProt Q9H7Z6)
T3 construct: endogenous in cells; host or cells: primary human T cells
T3 sequence (Q9H7Z6 1-458): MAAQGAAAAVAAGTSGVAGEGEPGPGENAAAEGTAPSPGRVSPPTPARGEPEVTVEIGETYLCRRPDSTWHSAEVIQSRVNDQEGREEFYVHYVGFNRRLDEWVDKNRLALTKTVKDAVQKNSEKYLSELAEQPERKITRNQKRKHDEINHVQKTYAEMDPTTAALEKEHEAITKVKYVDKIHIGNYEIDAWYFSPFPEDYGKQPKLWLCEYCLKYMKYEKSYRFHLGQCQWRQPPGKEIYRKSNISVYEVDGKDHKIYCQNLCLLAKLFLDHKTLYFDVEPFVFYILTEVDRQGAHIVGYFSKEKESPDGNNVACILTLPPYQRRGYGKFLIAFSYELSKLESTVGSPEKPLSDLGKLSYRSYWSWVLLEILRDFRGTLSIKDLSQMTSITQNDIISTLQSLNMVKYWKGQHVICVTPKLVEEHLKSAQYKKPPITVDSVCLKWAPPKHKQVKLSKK

T1 sequence (Q16875 whole entry, one chain of several): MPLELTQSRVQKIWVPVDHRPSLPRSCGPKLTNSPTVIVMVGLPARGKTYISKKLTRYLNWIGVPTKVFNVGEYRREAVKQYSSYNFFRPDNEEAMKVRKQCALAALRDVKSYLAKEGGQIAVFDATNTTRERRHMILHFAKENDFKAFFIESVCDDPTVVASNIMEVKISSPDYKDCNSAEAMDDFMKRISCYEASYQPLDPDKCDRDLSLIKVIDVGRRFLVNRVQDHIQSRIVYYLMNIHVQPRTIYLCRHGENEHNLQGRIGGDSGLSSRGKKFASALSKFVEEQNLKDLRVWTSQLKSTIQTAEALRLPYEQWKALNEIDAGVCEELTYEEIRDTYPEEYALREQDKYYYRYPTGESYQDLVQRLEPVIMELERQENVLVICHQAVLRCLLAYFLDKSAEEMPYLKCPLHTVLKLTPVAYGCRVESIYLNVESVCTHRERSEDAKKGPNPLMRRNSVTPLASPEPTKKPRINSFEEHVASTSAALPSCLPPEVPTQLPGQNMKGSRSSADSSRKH

O=C(CCl)N1CCN(S(=O)(=O)c2ccc(-c3ccncc3)cc2)CC1 [Compound B9]
Cysteine reactivity proteomic data [1]: 62.11
Cysteine reactivity proteomic data [2]: 78.65
Cysteine reactivity proteomic data [3]: 67.98
